# US20200113954A1, “PHARMACEUTICAL AND FOOD COMPOSITION FOR THE TREATMENT OF VAGINAL AND INTESTINAL DYSBIOSIS” (priority 2018, published 2020)
# Test system: vulvovaginal candidiasis
# Experiment: Third pilot study: open-label, Microbio+ capsules vs topical clotrimazole in women with uncomplicated vulvovaginal candidiasis
# Type: in vivo, human
# Source text: Study of the Effect of Microbio+ CAPSULES in Woman with Uncomplicated Vulvovaginal Candidiasis.
# The primary endpoints are:
# reduction in frequency of recurrences
# re-equilibrium of the vaginal microflora (through assessment of clinical signs and Lactobacillus grade) in women with uncomplicated vulvovaginal candidiasis.
# CLOTRIMAZOLE group: single administration of topical antifungal treatment with no maintenance cycle
# Group B: Microbio+ for 15 consecutive days and maintenance cycle of 5 days a month in premenstrual phase for 3 months
# Uncomplicated Vulvovaginal candidiasis;
# Microscopic diagnosis of vulvovaginal candidiasis through wet mount or vaginal culture;
# Not menopausal (defined as 12 or more months since last menstrual cycle at appropriate age);
# The total study duration is 12 weeks.
# Diagnosis (V0) and start of treatment
# Day 15, day 30 and day 90 visits (V1, 2 and 3): At each visit, the patient was asked if they had taken the treatment regularly and if they had experienced any clinical symptoms or adverse events. A clinical examination, microscopic wet mount examination or (if available) cultural examination were performed to establish the effect of the treatment and the lactobacillus grade.
# Primary outcomes: • Evaluation of the efficacy of Microbio+ in women with acute VVC: • 1. Clinical cure rate (resolution of symptoms) of VVC at 15, 30 and 90 days; • 2. Microbiological and microscopic cure of VVC (negative vaginal culture or absence of hyphae at wet mount); • 3. Recurrence rate (defined as the presence of symptoms or positive fungal culture or presence of hyphae at wet mount) in 3-month follow-up period.
# Secondary outcomes: • Safety and tolerability of Microbio+ in adult women.
# [1] = at 15 and 30 days, 20 patients per arm
# [2] = within the 3 months of follow-up, 20 patients per arm
smiles,measurement,setting,value
"Clc1ccccc1C(c1ccccc1)(c1ccccc1)n1ccnc1 [clotrimazole, Clotrimazole]",clinical and microbiological cure in 1 month,"1 month, FIG. 6 summary",80%
same,"clinical and microbiological cure, number of women",[1],16 women
same,"clinical and microbiological cure, percent of women",[1],80%
same,"symptomatic recurrences (symptom recurrence rate), percent of women",[2],40%
same,"symptomatic recurrences, number of women",[2],8 women
